Broadly, the IC50 is the concentration that gives 50% inhibition.

Data on 17 compounds can be found in EP4752152A1, “STEROID COMPOUND, AND PREPARATION METHOD THEREFOR AND USE THEREOF” (Cholesgen (Shanghai) Co.Ltd., priority 2023, dated 2025).

One assay concerns SREBP pathway. Kind of assay: SREBP luciferase reporter gene system (SRE-luciferase assay). The assay is classed as cell-based, human. The conditions noted are these: Homo sapiens, Huh-7, 16 h, Huh-7/SRE-luc cells, sterol-deficient medium, 0.01-10 µM. The gist of the method: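 Readout was SRE-driven luciferase normalised to GFP fluorescence in lysates of stably transfected Huh-7/SRE-luc hepatoma cells. Compounds (0.01, 0.03, 0.1, 0.3, 1.0, 3.0, 10 µM; DMSO control) were applied for 16 h in sterol-depleted medium with 2 µM lovastatin and 10 µM mevalonate; IC50 from variable-slope fit.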
On the technique in general: Reporter assays use an easily measured gene product as a stand-in for the process of interest.
On to `C[C@H](CCN(C)C(=O)c1ccccc1F)[C@H]1CC[C@H]2[C@@H]3CC[C@@]4(C)[C@@H](O)[C@@H](O)CC[C@]4(C)[C@H]3CC[C@]12C` [Compound 15A, 2-fluoro-N-[(3R)-3-[(1R,3aS,3bS,5aR,6R,7S,9aR,9bS,11aR)-6,7-dihydroxy-5a,9a,11a-trimethylhexadecahydro-1H-cyclopenta[1,2-a]phenanthren-1-yl]butyl]-N-methylbenzamide], for which the half-inhibitory concentration (IC50) came to 0.37 µM.

Regarding `COc1nc(F)ccc1C(O)CC[C@@H](C)[C@H]1CC[C@H]2[C@H]3[C@H](CC[C@]12C)[C@@]1(C)CC[C@H](O)[C@H](O)[C@@H]1CC3(F)F` (stereo partly drawn) [Compound 341, (1R,3aS,3bS,5aR,6R,7S,9aR,9bS,11aR)-4,4-difluoro-1-[(2R)-5-(6-fluoro-2-methoxypyridin-3-yl)-5-hydroxypentan-2-yl]-9a,11a-dimethylhexadecahydro-1H-cyclopenta[1,2-a]phenanthrene-6,7-diol], the IC50 worked out at 0.206 µM.

As to `C[C@H](CCCC(O)c1cccc(OC(F)(F)F)c1)[C@H]1CC[C@H]2C3=C(F)C[C@H]4[C@@H](O)[C@@H](O)CC[C@]4(C)[C@H]3CC[C@]12C` (stereo partly drawn) [Compound 88, (1R,3aR,5aR,6R,7S,9aR,9bR,11aR)-4-fluoro-1-[(2R)-6-hydroxy-6-{3-[(trifluoromethyl)oxy]phenyl}hexan-2-yl]-9a,11a-dimethyl-2,3,3a,5,5a,6,7,8,9,9a,9b,10,11,11a-tetradecahydro-1H-cyclopenta[1,2-a]phenanthrene-6,7-diol], the IC50 came to 0.622 µM.

In the case of `COc1cccc(F)c1C(O)CCC[C@@H](C)[C@H]1CC[C@H]2[C@H]3[C@H](CC[C@]12C)[C@@]1(C)CC[C@H](O)C(=O)[C@@H]1CC3(F)F` (stereo partly drawn) [Compound 124, (1R,3aS,3bS,5aR,7S,9aR,9bS,11aR)-4,4-difluoro-1-[(2R)-6-(2-fluoro-6-methoxyphenyl)-6-hydroxyhexan-2-yl]-7-hydroxy-9a,11a-dimethylhexadecahydro-1H-cyclopenta[1,2-a]phenanthren-6-one], the IC50 amounted to 0.064 µM.

As for `C[C@H](CCCC(O)c1ccc(F)nc1F)[C@H]1CC[C@H]2[C@H]3[C@H](CC[C@]12C)[C@@]1(C)CC[C@H](O)[C@H](O)[C@@H]1CC3(F)F` (stereo partly drawn) [Compound 148, (1R,3aS,3bS,5aR,6R,7S,9aR,9bS,11aR)-1-[(2R)-6-(2,6-difluoropyridin-3-yl)-6-hydroxyhexan-2-yl]-4,4-difluoro-9a,11a-dimethylhexadecahydro-1H-cyclopenta[1,2-a]phenanthrene-6,7-diol], the IC50 is 0.08 µM.

Take `COc1cccc(F)c1[C@H](F)CCC[C@@H](C)[C@H]1CC[C@H]2[C@H]3[C@H](CC[C@]12C)[C@@]1(C)CC[C@H](O)[C@H](O)[C@@H]1CC3(F)F` (single isomer, unassigned) [Compound 216]: the IC50 came to 2.65 µM.

Consider `C[C@H](CCC[C@H](O)c1ncc(F)cc1F)[C@H]1CC[C@H]2[C@H]3[C@H](CC[C@]12C)[C@@]1(C)CC[C@H](O)[C@H](O)[C@@H]1CC3(F)F` (single isomer, unassigned) [Compound 279], for which the half-maximal inhibitory concentration (IC50) is 0.202 µM.

Regarding `COc1cccc(C(O)CCC[C@@H](C)[C@H]2CC[C@H]3C4=C(F)C[C@H]5[C@@H](O)[C@@H](O)CC[C@]5(C)[C@H]4CC[C@]23C)c1` (stereo partly drawn) [Compound 40, (1R,3aR,5aR,6R,7S,9aR,9bR,11aR)-4-fluoro-1-[(2R)-6-hydroxy-6-(3-methoxyphenyl)hexan-2-yl]-9a,11a-dimethyl-2,3,3a,5,5a,6,7,8,9,9a,9b,10,11,11a-tetradecahydro-1H-cyclopenta[1,2-a]phenanthrene-6,7-diol], the IC50 was 0.25 µM.

On to `COc1cc(F)ccc1/C(CCC[C@@H](C)[C@H]1CC[C@H]2[C@H]3[C@H](CC[C@]12C)[C@@]1(C)CC[C@H](O)[C@H](O)[C@@H]1CC3(F)F)=N/O` [Compound 157, [(1E,5R)-5-[(1R,3aS,3bS,5aR,6R,7S,9aR,9bS,11aR)-4,4-difluoro-6,7-dihydroxy-9a,11a-dimethylhexadecahydro-1H-cyclopenta[1,2-a]phenanthren-1-yl]-1-(4-fluoro-2-methoxyphenyl)hexylidene]hydroxylamine], for which the half-inhibitory concentration (IC50) is 0.053 µM.

On to `C[C@H](CCCC(O)c1cnc2c(c1)OC(F)(F)O2)[C@H]1CC[C@H]2[C@H]3[C@H](CC[C@]12C)[C@@]1(C)CC[C@H](O)[C@H](O)[C@@H]1CC3(F)F` (stereo partly drawn) [Compound 284, (1R,3aS,3bS,5aR,6R,7 S,9aR,9bS,11aR)-1-[(2R)-6-(2,2-Difluoro[1,3]dioxolo[4,5-b]pyridin-6-yl)-6-hydroxyhexan-2-yl]-4,4-difluoro-9a,11a-dimethylhexadecahydro-1H-cyclopenta[1,2-a]phenanthrene-6,7-diol], for which the IC50 was 0.309 µM.

Regarding `C[C@H](CCCC(O)c1ncco1)[C@H]1CC[C@H]2[C@H]3[C@H](CC[C@]12C)[C@@]1(C)CC[C@H](O)[C@H](O)[C@@H]1CC3(F)F` (stereo partly drawn) [Compound 99, (1R,3aS,3bS,5aR,6R,7S,9aR,9bS,11aR)-4,4-difluoro-1-[(2R)-6-hydroxy-6-(1,3-oxazol-2-yl)hexan-2-yl]-9a,11a-dimethylhexadecahydro-1H-cyclopenta[1,2-a]phenanthrene-6,7-diol], the IC50 was determined as 0.243 µM.

With `C[C@H](CCC(O)c1ccc(F)nc1OC1CC1)[C@H]1CC[C@H]2[C@H]3[C@H](CC[C@]12C)[C@@]1(C)CC[C@H](O)[C@H](O)[C@@H]1CC3(F)F` (stereo partly drawn) [Compound 382, (1R,3aS,3bS,5aR,6R,7S,9aR,9bS,11aR)-1-[(2R)-5-[2-(cyclopropyloxy)-6-fluoropyridin-3-yl]-5-hydroxypentan-2-yl]-4,4-difluoro-9a,11a-dimethylhexadecahydro-1H-cyclopenta[1,2-a]phenanthrene-6,7-diol], the IC50 is 0.057 µM.

Staying with this assay, now noted: Huh-7/SRE-luc cells, sterol-deficient medium, 16 hours, 0.01-10 µM.
Turning to `C[C@H](CCCC(O)c1ccc2c(c1)OC(F)(F)O2)[C@H]1CC[C@H]2[C@H]3[C@H](CC[C@]12C)[C@@]1(C)CC[C@H](O)[C@H](O)[C@@H]1CC3(F)F` (single isomer, unassigned) [Compound 259, (1R,3aS,3bS,5aR,6R,7S,9aR,9bS,11aR)-1-[(2R,6R)-6-(2,2-difluorobenzo[d][1,3]dioxol-5-yl)-6-hydroxyhexan-2-yl]-4,4-difluoro-9a,11a-dimethylhexadecahydro-1H-cyclopenta[1,2-a]phenanthrene-6,7-diol or (1R,3aS,3bS,5aR,6R,7S,9aR,9bS,11aR)-1-[(2R,6S)-6-(2,2-difluorobenzo[d][1,3]dioxol-5-yl)-6-hydroxyhexan-2-yl]-4,4-difluoro-9a,11a-dimethylhexadecahydro-1H-cyclopenta[1,2-a]phenanthrene-6,7-diol], the IC50 was 0.249 µM.

Take `C[C@H](CCCC(O)c1cccc2c1nnn2C)[C@H]1CC[C@H]2[C@H]3[C@H](CC[C@]12C)[C@@]1(C)CC[C@H](O)[C@H](O)[C@@H]1CC3(F)F` (single isomer, unassigned) [Compound 291, (1R,3aS,3bS,5aR,6R,7S,9aR,9bS,11aR)-4,4-difluoro-1-[(2R,6R)-6-hydroxy-6-(1-methylbenzo[d][1,2,3]triazol-4-yl)hexan-2-yl]-9a,11a-dimethylhexadecahydro-1H-cyclopenta[1,2-a]phenanthrene-6,7-diol or (1R,3aS,3bS,5aR,6R,7S,9aR,9bS,11aR)-4,4-difluoro-1-[(2R,6S)-6-hydroxy-6-(1-methylbenzo[d][1,2,3]triazol-4-yl)hexan-2-yl]-9a,11a-dimethylhexadecahydro-1H-cyclopenta[1,2-a]phenanthrene-6,7-diol]: the half-inhibitory concentration (IC50) was 0.141 µM.

On to `C[C@H](CCCC(O)c1cccc2cn[nH]c12)[C@H]1CC[C@H]2[C@H]3[C@H](CC[C@]12C)[C@@]1(C)CC[C@H](O)[C@H](O)[C@@H]1CC3(F)F` (single isomer, unassigned) [Compound 268, (1R,3aS,3bS,5aR,6R,7S,9aR,9bS,11aR)-4,4-difluoro-1-[(2R,6S)-6-hydroxy-6-(1H-indazol-7-yl)hexan-2-yl]-9a,11a-dimethylhexadecahydro-1H-cyclopenta[1,2-a]phenanthrene-6,7-diol or (1R,3aS,3bS,5aR,6R,7S,9aR,9bS,11aR)-4,4-difluoro-1-[(2R,6R)-6-hydroxy-6-(1H-indazol-7-yl)hexan-2-yl]-9a,11a-dimethylhexadecahydro-1H-cyclopenta[1,2-a]phenanthrene-6,7-diol], for which the 50% inhibitory concentration (IC50) came to 0.141 µM.

With `COc1ccc(C(O)CCC[C@@H](C)[C@H]2CC[C@H]3[C@H]4[C@H](CC[C@]23C)[C@@]2(C)CC[C@H](O)[C@H](O)[C@@H]2CC4(F)F)c(F)n1` (single isomer, unassigned) [Compound 242, (1R,3aS,3bS,5aR,6R,7S,9aR,9bS,11aR)-4,4-difluoro-1-[(2R,6S)-6-(2-fluoro-6-methoxypyridin-3-yl)-6-hydroxyhexan-2-yl]-9a,11a-dimethylhexadecahydro-1H-cyclopenta[1,2-a]phenanthrene-6,7-diol or (1R,3aS,3bS,5aR,6R,7S,9aR,9bS,11aR)-4,4-difluoro-1-[(2R,6R)-6-(2-fluoro-6-methoxypyridin-3-yl)-6-hydroxyhexan-2-yl]-9a,11a-dimethylhexadecahydro-1H-cyclopenta[1,2-a]phenanthrene-6,7-diol], the IC50 is 0.205 µM.

Consider `C[C@H](CCCC(O)c1cncc2c1cnn2C)[C@H]1CC[C@H]2[C@H]3[C@H](CC[C@]12C)[C@@]1(C)CC[C@H](O)[C@H](O)[C@@H]1CC3(F)F` (single isomer, unassigned) [Compound 287, (1R,3aS,3bS,5aR,6R,7S,9aR,9bS,11aR)-4,4-difluoro-1-[(2R,6S)-6-hydroxy-6-(1-methylpyrazolo[3,4-c]pyridin-4-yl)hexan-2-yl]-9a,11a-dimethylhexadecahydro-1H-cyclopenta[1,2-a]phenanthrene-6,7-diol or (1R,3aS,3bS,5aR,6R,7S,9aR,9bS,11aR)-4,4-difluoro-1-[(2R,6R)-6-hydroxy-6-(1-methylpyrazolo[3,4-c]pyridin-4-yl)hexan-2-yl]-9a,11a-dimethylhexadecahydro-1H-cyclopenta[1,2-a]phenanthrene-6,7-diol], for which the IC50 is 0.131 µM.
